Test results as given in patent US20110217258A1, “Combined Use of Bendamustine, Doxorubicin and Bortezomib for the Treatment of Multiple Myeloma” (Indiana University Research and Technology Corporation, priority 2008, published 2011).

System: H929 and MM1R myeloma cell lines
Experiment: MTS cellular cytotoxicity assay, single agent
Format: cell-based
Description: H929 and MM1R myeloma cell lines were cultured in vitro and cellular cytotoxicity was measured by MTS ([3-(4,5-dimethylthiazol-2-yl)-5-(3-carboxymethoxyphenyl)-2-(4-sulfophenyl)-2H-tetrazolium, inner salt) assay. The effect of the combination in terms of additive, antagonistic, or synergistic activity was assessed by Valeriote and Lin's method (Valeriote and Lin, Cancer Chemother Rep 1975; 59:895-900). […] To test the effect of the combination of all three drugs, cells were cultured with bendamustine (15 μg/ml) and doxorubicin (0.03 μg/ml) for 48 hours, and bortezomib (2.5 nmol/L) was added in the last 24 hours, and cytotoxicity was assayed.

For `Cl.Cn1c(CCCC(=O)O)nc2cc(N(CCCl)CCCl)ccc21` [bendamustine, 1H-benzimidazole-2-butanoic acid, 5-[bis(2-chloroethyl)amino]-1-methyl-, monohydrochloride], the CC50 (48 h, read-out: concentration lethal to 50% of cells (LC50)) was 34.9 ± 3.4 µg/mL and the “MM cell death induced by drug alone” value (bendamustine alone, repeated experiments) was “time and dose-dependent”.
